Experimental data from US20130109643A1, “METABOLIC INHIBITOR AGAINST TUMORS HAVING AN IDH MUTATION” (The Johns Hopkins University, priority 2010, published 2013).

Experiments:
[1] = test system: D54 glioblastoma cells overexpressing WT or R132H IDH1; experiment: alamarBlue cell growth assay, D54 glioblastoma lines overexpressing WT or R132H IDH1; assay type: cell-based, human
Procedure: (§1) Standard techniques were used to introduce the R132H mutation into human IDH1 engineered with a 6×-His-tag and produce lentivirus containing either WT or mutant IDH1. D54 cells or transformed normal human astrocytes (TNA) were transduced with virus, and lines were grown from individual cells using limiting dilution. IDH1 expression in response to […] doxycycline was confirmed using a 6×-His tag antibody (Millipore). Liquid chromatography/mass spectrometry was conducted as previously described. Dang L., et al., Cancer-associated IDH1 mutations produce 2-hydroxyglutarate. Nature 2009; 462:739-44. siRNA was used to knock down glutaminase, and cells were assessed for knockdown using Western blotting. Gao P., et al., c-Myc suppression of miR-23a/b enhances mitochondria/glutaminase expression and glutamine metabolism. Nature 2009; 458:762-5. Cell growth assays using alamarBlue were carried out as described following DMSO or bis-2-(5-phenylacetamido-1,2,4-thiadiazol-2-yl)ethyl sulfide (BPTES) treatment. Liolome W., et al., Glioblastoma cell growth is suppressed by disruption of Fibroblast Growth Factor pathway signaling. J Neurooncol 2009:94:359-66. […] [3H]-glutamate was isolated from the reaction mixture using anion exchange and measured using a scintillation counter. […] Data were evaluated using a two-tailed Student's t-test. P≦0.05 was considered significant.
D54 or TNA cells were transduced with virus containing WT or R132H IDH1. D54 cells were transduced using virus containing pLVCT-tTR-KRAB constructs, and TNA were transduced with virus containing Duet011 constructs. Lines were grown from individual cells using limiting dilution and tested for IDH1 expression. Expression was confirmed using Western blot and 6×-His-tag antibodies (Millipore). 0.04 μg/mL doxycycline was used to induce expression for D54 lines. Cells were maintained in DMEM, 10% FBS, 4.5 g/L glucose, and penicillin/streptomycin. Transformed normal human astrocytes (TNA) were a gift from Christopher M. Counter.
Cell growth assays using alamarBlue were carried out as described. Loilome W., et al., Glioblastoma cell growth is suppressed by disruption of Fibroblast Growth Factor pathway signaling. J Neurooncol 2009; 94(3):359-66. Cells were plated at a density of 500 cells/well in a 96-well black clear bottom plate (Becton Dickinson).

[2] = test system: primary acute myelogenous leukemia (AML) cells with mutant or wild-type IDH1; experiment: Growth curves of primary AML cells (trypan blue counting); assay type: cell-based, human; settings: BPTES at 20 or 40 μM vs DMSO vehicle
Procedure: Primary AML cells were cultured in RPMI-1640 media with 20% fetal bovine serum (FBS), 20% 5637 cell-conditioned media and 1% antibiotics as previously described (Miyauchi et al., 1987). Growth curves were generated by manual counting of viable cells as assessed by trypan blue exclusion on a hemocytometer. The detail of the procedure is as following: (1) The frozen cells are thawed and added into 10 mL of the media in a tissue culture flask and grown in a humidified incubator at 37° C. and 5% CO2 for 4-5 days. Cells were counted every 24-48 h to estimate the cells needed for the experiment. […] Then, 10-20 mL media containing each desired concentration of the drug were prepared. […] By doing this, the concentration of DMSO is constant and not more than 0.1%. BPTES is precipitated in PBS, so avoid dilution with PBS. […] When the cells were well homogenized, they were counted by 1:1 trypan blue exclusion with hemocytometer. […] The starting number for each cell line among control/DMSO/drug must be the same and is calculated based on the count from the cell-containing PBS solution. […] (6) Cells were counted every other day using a hemocytometer after staining with trypan blue (1:1). […] Cells were counted in the 4 outer squares of the hemocytometer, and the number was divided by 2 (=n). […] When cell concentration was low, more grids were counted and the cell concentrations were calculated accordingly.

[3] = test system: transformed normal human astrocytes (TNA) overexpressing R132H or WT IDH1; experiment: alamarBlue cell growth assay, transformed normal human astrocytes (TNA) expressing WT or R132H IDH1; assay type: cell-based; settings: 48 hours
Procedure: as §1, with “significant. […]” for “significant.”

mutant IDH1 cells [4] = experiment: Annexin V staining (flow cytometry); assay type: cell-based, human; settings: 10 μM BPTES, 24 hrs, vs DMSO
Procedure: Cells were plated at a density of 2×10^5 cells/well in a 6-well plate. Media was changed to media with or without doxycyline 24 hrs after plating.

[5] = test system: D54 cells overexpressing WT or R132H IDH1; experiment: LC/MS metabolite levels in WT and mutant IDH1 D54 cells; assay type: cell-based, human; settings: 10 mmol/L BPTES, 48 hours
Procedure: as §1
3×10^5 (untreated) or 7.5×10^5 (BPTES-treated) cells were seeded in a T75 flask. 24 hrs post-plating, media on the cells was changed to 4.5 g/L glucose, 10% HyClone dialyzed FBS (ThermoScientific), penicillin/streptomycin, 4 mM glutamine and 0.04 μg/mL doxycycline to induce IDH1 expression. […] Metabolites were measured in one of two ways: using a reverse phase column with tributylamine as an ion pairing agent, Luo B., et al., Simultaneous determination of multiple intracellular metabolites in glycolysis, pentose phosphate pathway and tricarboxylic acid cycle by liquid chromatography-mass spectrometry. J Chromatogr 2007; 1147(2):153-64, coupled to a Thermo Exactive Mass Spectrometer operating at 100,000 resolving power using a mass range of ±5 ppm or single reaction monitoring on a Thermo TSQ Quantum Triple Quadrupole Mass Spectrometer coupled to an aminopropyl HPLC column. Bajad S. U., et al., Separation and quantitation of water soluble cellular metabolites by hydrophilic interaction chromatography-tandem mass spectrometry. J Chromatogr 2006; 1125(1):76-88. Signals were normalized to cell number prior to data analysis.

mutant IDH1 cells [6] = experiment: Caspase 3/7 activation assay (Caspase-Glo 3/7); assay type: cell-based, human; settings: 10 μM BPTES, 24 hrs, vs DMSO
Procedure: Cells were plated at a density of 5000 cells/well in a 96-well black clear bottom plate (Becton Dickinson). 24 hrs after plating, media was changed to fresh media with or without 0.04 μg/mL doxycycline.

In the case of `NOCC(=O)O` [AOA, amino-oxyacetic acid], the “sensitivity of growth, mutant vs WT IDH1 cells” value (from here on “sensitivity … vs WT IDH1 cells”) ([1]; AOA, 1.5 g/L glucose, 48 hrs) is reported as “more sensitive”.

For `O=C(Cc1ccccc1)Nc1nnc(CCSCCc2nnc(NC(=O)Cc3ccccc3)s2)s1` [BPTES], the “cell killing, mIDH1 vs wild-type AML cells” value [2] was “selectively kills”, the “sensitivity … vs WT IDH1 cells” value [3] was “mutant IDH1 cells also were more sensitive” and the “Annexin V staining” value (mutant IDH1 cells [4]) was “does not increase”. For the same compound, the “levels of glycolytic intermediates (fructose-1,6-bisphosphate, dihydroxy-acetone-phosphate, 3-phosphoglycerate)” value [5] was “increased”, the “tricarboxylic acid cycle intermediates (succinate and malate) and aspartate levels” value [5] was “decreases” and the citrate levels ([5]; WT IDH1 cells) was “decreased”. For the same compound, the glutamate levels ([5]; WT and mutant IDH1 cells) was “diminished”, the α-KG levels ([5]; WT and mutant IDH1 cells) was “diminished” and the citrate levels ([5]; mutant IDH1 cells) was “increased”. For the same compound, the 2-HG levels ([5]; treated mutant IDH1 cells) was “remained unchanged”, the “effect on growth, mutant vs WT IDH1 cells” value ([1]; D54+R132H compared with D54 and D54+WT IDH1, 48 hours) was “preferentially slowed growth of mutant IDH1 cells” and the growth reduction ([1]; mutant IDH1 D54 cells, 48 hours) was “about 20%”. For the same compound, the “Caspase 3/7 induction” value (mutant IDH1 cells [6]) was “does not increase”.

`O=C(O[C@@H]1Cc2c(O)cc(O)cc2O[C@@H]1c1cc(O)c(O)c(O)c1)c1cc(O)c(O)c(O)c1` [EGCG, epigallocatechin gallate] was tested, and the “sensitivity … vs WT IDH1 cells” value ([1]; EGCG, 0.1 g/L glucose, 72 hrs) was “more sensitive”.

With `COC(=O)CCC(=O)C(=O)OC` [dimethyl-α-ketoglutarate] the “rescue of BPTES growth inhibition at higher BPTES concentrations” value ([1]; 1 mmol/L dimethyl-α-ketoglutarate, 50 or 100 mmol/L BPTES) was “not blocked” and the “rescue of BPTES growth inhibition” value ([1]; mutant IDH1 cells, 1 mmol/L dimethyl-α-ketoglutarate added to BPTES) was “significantly reduced growth inhibition”.
